Earlier results on 2 molecules are cited in patent US8512794B2, “Oleate ester phytosterol compositions” (Perlman Consulting, LLC, priority 2010, dated 2013).

The subject of this series is humans.

As to `CC[C@H](CC[C@@H](C)[C@H]1CC[C@H]2[C@@H]3CC=C4C[C@@H](O)CC[C@]4(C)[C@H]3CC[C@]12C)C(C)C` [sitosterol], under “9-18 grams per day, coarse powdered form”, the “decrease of plasma cholesterol level” value is given as “approximately 15%”.

As for `CC[C@H](CC[C@@H](C)[C@H]1CC[C@H]2[C@@H]3CC=C4C[C@@H](O)CC[C@]4(C)[C@H]3CC[C@]12C)C(C)C` [beta sitosterol], the “lowering of serum cholesterol” value (12-18 g per day in divided doses, males with atherosclerosis (Faquhar et al. 1956)) is listed as 15-20%.
